Experimental data published in patent publication US8778972B2, “5-pyridin-3-yl-1, 3-dihydro-indol-2-on derivatives and their use as modulators of aldosterone synthase and/or CYP11B1” (Novartis AG, priority 2009, dated 2014).

Assays:
aldosterone synthase = target: T1, aldosterone synthase (Homo sapiens, UniProt P19099); experiment: Aldosterone cell secretion in NCI-H295R cells (Ang II stimulated, SPA); format: cell-based
T1 construct: host or cells: NCI-H295R
T1 sequence (P19099 25-503): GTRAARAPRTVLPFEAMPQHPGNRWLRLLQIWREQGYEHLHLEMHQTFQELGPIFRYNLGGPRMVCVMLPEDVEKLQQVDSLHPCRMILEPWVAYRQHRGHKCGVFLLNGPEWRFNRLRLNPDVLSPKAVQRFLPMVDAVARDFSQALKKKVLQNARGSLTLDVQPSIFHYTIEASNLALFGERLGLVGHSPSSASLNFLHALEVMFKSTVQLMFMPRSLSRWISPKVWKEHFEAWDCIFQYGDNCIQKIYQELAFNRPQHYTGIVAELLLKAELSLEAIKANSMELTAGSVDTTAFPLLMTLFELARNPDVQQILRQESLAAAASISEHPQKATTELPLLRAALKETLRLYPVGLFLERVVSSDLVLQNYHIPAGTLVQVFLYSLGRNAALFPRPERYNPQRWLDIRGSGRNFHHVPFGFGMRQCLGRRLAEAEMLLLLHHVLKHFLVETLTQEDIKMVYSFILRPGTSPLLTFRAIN
Text: In particular, the aldosterone synthase inhibitory activities in vitro can be determined by the following assay.
Human adrenocortical carcinoma NCI-H295R cell line was obtained from American Type Culture Collection (Manassas, Va.). Insulin/transferrin/selenium (ITS)-A supplement (100×), DMEM/F-12, antibiotic/antimycotic (100×), and fetal bovine serum (FBS) were purchased from Invitrogen (Carlsbad, Calif.). Anti-mouse PVT scintillation proximity assay (SPA) beads and NBS 96-well plates were obtained from GE Health Sciences (Piscataway, N.J.) and Corning (Acton, Mass.), respectively. Solid black 96-well flat bottom plates were purchased from Costar (Corning, N.Y.). Aldosterone and angiotensin (Ang II) were purchased from Sigma (St. Louis, Mo.). D[1,2,6,7-^3H(N)]aldosterone was acquired from PerkinElmer (Boston, Mass.). Nu-serum was a product of BD Biosciences (Franklin Lakes, N.J.).
For in vitro measurement of aldosterone activity, human adrenocortical carcinoma NCI-H295R cells are seeded in NBS 96-well plates at a density of 25,000 cells/well in 100 μl of a growth medium containing DMEM/F12 supplemented with 10% FCS, 2.5% Nu-serum, 1 μg ITS/ml, and 1× antibiotic/antimycotic. The medium is changed after culturing for 3 days at 37° C. under an atmosphere of 5% CO2/95% air. On the following day, cells are rinsed with 100 μl of phosphate-buffered saline (PBS) and incubated with 100 μl of treatment medium containing 1 μM Ang II and a compound at different concentrations in quadruplicate wells at 37° C. for 24 hr. At the end of incubation, 50 μl of medium is withdrawn from each well for measurement of aldosterone production by an SPA using mouse anti-aldosterone monoclonal antibodies.
Measurement of aldosterone activity can also be performed using a 96-well plate format. Each test sample is incubated with 0.02 μCi of D-[1,2,6,7-^3H(N)]aldosterone and 0.3 μg of anti-aldosterone antibody in PBS containing 0.1% Triton X-100, 0.1% bovine serum albumin, and 12% glycerol in a total volume of 200 μl at room temperature for 1 hr. Anti-mouse PVT SPA beads (50 μl) are then added to each well and incubated overnight at room temperature prior to counting in a Microbeta plate counter. The amount of aldosterone in each sample is calculated by comparing with a standard curve generated using known quantities of the hormone.
(§1) Inhibition of the release of certain steroids can be used as a measure of the respective enzyme inhibition by the added test compounds. The dose-dependent inhibition of enzymic activity by a compound is calculated by means of an inhibition plot which is characterized by an IC50.
The IC50 values for active test compounds are ascertained by a simple linear regression analysis in order to construct inhibition plots without data weighting. The inhibition plot is calculated by fitting a 4-parameter logistic function to the raw data points using the least squares method. The equation of the 4-parameter logistic function is calculated as follows: Y=(d−a)/((1+(x/c)b))+a, where: a=minimum data level, b gradient, I c=ICED, d=maximum data level, x=inhibitor concentration.
The inhibition activity of aldosterone production can also be expressed in percentage inhibition (% inhibition) at a given concentration (e.g. % inhibition at 1 μM), which is the aldosterone level when the cell is treated with the given concentration of a compound of this invention (e.g. concentration of 1 μM) versus the aldosterone excretion when cell is free of the compound of the invention: % inhibition aldosterone production=[(Y′−X′)/Y′]×100 wherein X′ is the level of aldosterone when the cell is treated with a compound of Formula I and Y′ is the level of aldosterone when the cell is free of compound of Formula I.

CYP11B1 = target: T2, CYP11B1 (Homo sapiens, UniProt P15538); experiment: Cortisol cell secretion in NCI-H295R cells (CYP11B1 activity); format: cell-based; details: for inhibition at 1 µM: read-out: Cortisol cell secretion (% Inhib. @ 1 μM)
T2 construct: the NCI-H295R cells have Cyp11 B1 (steroid 11 β-hydroxylase); host or cells: NCI-H295R
T2 sequence (P15538 25-503): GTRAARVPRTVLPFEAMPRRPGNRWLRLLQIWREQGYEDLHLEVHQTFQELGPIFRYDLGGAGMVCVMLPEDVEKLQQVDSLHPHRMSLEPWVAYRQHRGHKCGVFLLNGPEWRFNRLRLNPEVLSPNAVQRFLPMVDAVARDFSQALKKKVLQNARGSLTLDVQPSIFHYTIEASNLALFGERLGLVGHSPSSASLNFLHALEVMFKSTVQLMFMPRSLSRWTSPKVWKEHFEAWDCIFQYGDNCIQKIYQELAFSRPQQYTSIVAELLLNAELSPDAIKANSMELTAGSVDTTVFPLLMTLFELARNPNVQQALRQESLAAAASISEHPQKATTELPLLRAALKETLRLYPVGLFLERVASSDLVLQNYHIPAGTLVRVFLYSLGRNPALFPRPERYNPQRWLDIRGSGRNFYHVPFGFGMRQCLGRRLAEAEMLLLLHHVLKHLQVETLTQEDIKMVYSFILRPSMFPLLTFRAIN
Text: The in vitro inhibitory activities for CYP11B1 can be determined by the following assay.
The cell line NCI-11295R was originally isolated from an adrenocortical carcinoma and has been characterized in the literature through the stimulable secretion of steroid hormones and the presence of the enzymes essential for steroidogenesis. Thus, the NCI-H295R cells have Cyp11 B1 (steroid 11 β-hydroxylase). The cells show the physiological property of zonally undifferentiated human foetal adrenocortical cells which, however, have the capacity to produce the steroid hormones which are formed in the three, phenotypically distinguishable zones in the adult adrenal cortex.
The NCI-H295R cells (American Type Culture Collection, ATCC, Rockville, Md., USA) are grown in Dulbeoco's Modified Eagle' Ham F-12 Medium (DME/F12), which has been supplemented with Ulroser SF Serum (Soprachem, Cergy-Saint-Christophe, France), insulin, transferrin, selenite (I-T-S, Becton Dickinson Biosciences, Franklin lakes, N.J., USA) and antibiotics in 75 cm^2 cell culture vessels at 37° C. and in a 95% air-5% carbon dioxide atmosphere. The cells are subsequently transferred for colony formation into a 24-well incubation vessel. They are cultivated there in DME/F12 medium, which is now supplemented with 0.1% bovine serum instead of Ultroser SF for 24 hours. The experiment is initiated by cultivating the cells in DME/F12 medium which is supplemented with 0.1% bovine serum albumin and test compound, in the presence or absence of cell stimulants, for 72 hours. The test substance is added in a concentration range from 0.2 nanomolar to 20 millimolar. Cell stimulants which can be used are angiotensin II ([…] or 100 nanomolar), potassium ions (16 millimolar), forskolin (10 micromolar) or a combination of two stimulants.
The excretion of aldosterone, cortisol, corticosterone and estradiol/estrone into the culture medium can be detected and quantified by commercially available, specific monoclonal antibodies in radioimmunoassays in accordance with the manufacturer's instructions.
as §1
The inhibition activity of cortisol production (CYP11B1 activity) can also be expressed in percentage inhibition (% inhibition) at a given concentration (e.g. % inhibition at 1 μM), which is the cortisol level when cell is treated with the given concentration of a compound of the invention (e.g. concentration of 1 versus the cortisol excretion when cell is free of the compound of the invention: % inhibition cortisol production=[(Y′−X′)/Y′]×100 wherein X′ is the level of cortisol when the cell is treated with a compound of Formula I; and Y′ is the level of cortisol when the cell is free of compound of Formula

| Compound | IC50 (aldosterone synthase) [nM] | Cortisol cell secretion (% Inhib. @ 1 μM) (CYP11B1) [%] | inhibition at 1 µM (CYP11B1) [%] |
| --- | --- | --- | --- |
| 1-Isopropyl-3-[5-(1-methyl-2-oxo-2,3-dihydro-1H-indol-5-yl)-pyridin-3-ylmethyl]-urea [Example 15] | 172 | 82 | – |
| 1-Methyl-5-(5-methyl-pyridin-3-yl)-1,3-dihydro-indol-2-one [Example 1] | 91.5 | 29.5 | – |
| 5-(4-Ethyl-pyridin-3-yl)-1-methyl-1,3-dihydro-indol-2-one [Example 6] | 11 | 83 | – |
| 5-(5-Ethoxy-pyridin-3-yl)-1-methyl-1,3-dihydro-indol-2-one [#13] | 18 | 51 | – |
| 5-[5-(1-Hydroxy-1-methyl-ethyl)-pyridin-3-yl]-1-methyl-1,3-dihydro-indol-2-one [Example 16] | 14 | 87 | – |
| CN1C(=O)Cc2cc(-c3cncc(F)c3)ccc21 [Example 2, 5-(5-Fluoro-pyridin-3-yl)-1-methyl-1,3-dihydro-indol-2-one] | 5 | 83 | – |
| CN1C(=O)Cc2c1ccc(-c1cccnc1)c2Cl [Example 4] | 10 | – | 85.5 |
| CN1C(=O)Cc2cc(-c3cncc(C(N)=O)c3)ccc21 [Example 5, 5-(1-Methyl-2-oxo-2,3-dihydro-1H-indol-5-yl)-nicotinamide] | 58 | 78 | – |
| COc1c(-c2cccnc2)ccc2c1CC(=O)N2C [Example 8] | 36 | – | 84 |
| CC(C)C(=O)Nc1cncc(-c2ccc3c(c2)CC(=O)N3C)c1 [Example 9, N-[5-(1-Methyl-2-oxo-2,3-dihydro-1H-indol-5-yl)-pyridin-3-yl]-isobutyramide] | 15 | 89 | – |
| Cc1c(-c2cncc(Br)c2)ccc2c1CC(=O)N2C [Example 10] | 4 | – | 93 |
| CN1C(=O)Cc2cc(-c3cncc(C4CC4)c3)ccc21 [Example 12] | 2 | – | 79 |
| CCOc1cncc(-c2ccc3c(c2)CC(=O)N3C)c1 [Example 13] | 20 | – | 83.5 |
| CN1C(=O)Cc2cc(-c3cncc(-c4cccnc4)c3)ccc21 [Example 14] | 18 | – | 60 |
| Cn1c(=O)n(C)c2cc(-c3cccnc3)ccc21 [Example 18] | 408 | – | – |
| Cn1c(=O)oc2cc(-c3cccnc3)ccc21 [Example 19] | 472 | – | – |
